Converted amounts (≈) assume the structure as drawn. Positions of bridges follow the written chain, without caps; N, C: chain ends. Residues, ends and D or L forms follow the SMILES beside them.
Key:
S. aureus ATCC 25923 [1] = assay: MIC and MBC determination (CLSI broth microdilution); format: cell-based; details: Staphylococcus aureus; for MIC: ATCC25923, 1 × 10^5 CFU/mL, 16–18 h, 37 °C; for MBC: ATCC25923, lowest concentration giving 99.9% died bacteria
Description: (§1) Minimal Inhibitory Concentration (MIC), Minimal Bactericidal Concentration (MBC) and Mutant Prevention Concentration (MPC).
(§2) The MIC and MBC values of NZX against the test S. aureus strain were determined according to Clinical Laboratory Standards Institute (Watts et al. [2013]). Briefly, a volume of 10 μL diluted NZX with final concentration (1.25–1280 μg/mL) and 90 μL of mid-log phase S. aureus cells (1 × 10^5 CFU/mL) were added into a 96-well plate and co-incubated for 16–18 h at 37 °C. MIC value was defined as the lowest concentration of NZX at which no visible bacterial growth was observed. In addition, the bacteria suspensions were plated on Mueller–Hinton agar (MHA) medium to count, and the lowest concentration of NZX that results in 99.9% of died bacteria was the MBC value.

S. aureus ATCC 43300 [2] = assay: as above; format: cell-based; details: Staphylococcus aureus; for MIC: ATCC43300, 1 × 10^5 CFU/mL, 16–18 h, 37 °C; for MBC: ATCC43300, lowest concentration giving 99.9% died bacteria
Description: as §1, §2

S. aureus E48 [3] = assay: as above; format: cell-based; details: Staphylococcus aureus; for MIC: 1 × 10^5 CFU/mL, 16–18 h, 37 °C; for MBC: lowest concentration giving 99.9% died bacteria
Description: as §1, §2

S. aureus ATCC 43300 [4] = assay: Mutant prevention concentration (MPC) on MHA plates; format: cell-based, Staphylococcus aureus; details: 1 × 10^10 CFU/mL, 37 °C, 72 h, each concentration three times
Description: as §1
MPCs of NZX against the test S. aureus strain were determined as described by Plowgian et al., with some modification (Plowgian et al. [2019]). In brief, S. aureus cells were cultured to mid-log phase in Mueller–Hinton broth (MHB) medium. Then the suspensions were centrifuged (4000 rpm for 5 min) and the pellets were collected and diluted to a final concentration of 1 × 10^10 CFU/mL with MHB. […] All plates were incubated at 37 ^∘C for 72 h and the concentration corresponding to the plate with no bacterial growth was regarded as the provisional mutant prevention concentration (MPCpr). […] Lincomycin and ceftiofur were set as antibiotic controls, respectively. Each concentration was conducted three times.

S. aureus ATCC 25923 [5] = assay: In vitro dose-killing curves (24 h); format: cell-based, Staphylococcus aureus; details: for EC50: Staphylococcus aureus, ATCC25923, 50% reduction in Log10 CFU at 24 h between minimum and maximum; for Cs: concentration causing no apparent growth in Log10 CFU at 24 h vs initial inoculum
Description: (§3) The in vitro dose-killing curves of NZX against the test S. aureus strains were conducted as previous described (Brinch et al. [2010]), with some modification. The S. aureus cells in mid-log phage were diluted. Then, the killing curves of NZX against S. aureus strains were carried out in the 48-well plate. Specifically, a volume of 50 μL NZX (0.6–150 μM) was mixed with 450 μL of the above diluted bacterial suspension (5 × 10^5 CFU/mL), and the mixtures were incubated in the Micro Oscillator for 24 h (600 rpm, 37 °C). Subsequently, the bacteria suspensions were plated on MHA medium to count. Lincomycin and ceftiofur were set as antibiotic controls, respectively. PBS was negative control. Results were expressed as the average of three independent experiments data.

S. aureus ATCC 43300 [6] = assay: In vitro dose-killing curves (24 h); format: cell-based, Staphylococcus aureus
Description: as §3

S. aureus E48 [7] = assay: In vitro dose-killing curves (24 h); format: cell-based, Staphylococcus aureus; details: for EC50: Staphylococcus aureus, 50% reduction in Log10 CFU at 24 h between minimum and maximum; for Cs: concentration causing no apparent growth in Log10 CFU at 24 h vs initial inoculum
Description: as §3

S. aureus ATCC 43300 [8] = assay: Mouse mastitis model, bacterial counts in mammary tissues; format: in vivo; details: 24 h after treatment, vs PC group
Source text: The 7 to 8-weeks old ICR mice (80 females, 40 males) were housed in independent ventilated cages, and feed with autoclaved laboratory food and water. Female mice in heat were put into the cage of males (females:males, 2:1) overnight and checked for vaginal plugs at the following morning to induce pregnancy. ICR-lactating mice were used at 6 to 8 days after the birth of the offspring. The mouse mastitis model was established as previously described (Li et al. [2017]). Mice were randomly divided into nine groups: NC group (uninfected group), PC group (infected but without treatment), NZX groups (25, 50, 100, 200 and 400 μg/gland, respectively), lincomycin group (100 μg/gland), and ceftiofur group (100 μg/gland). Each experimental group has six independent experiments with three mice. Specially, the pups were removed 1 h before the intramammary injection of both L4 (on the left) and R4 (on the right) abdominal mammal glands. A 100 μL of S. aureus strains (1 × 10^6 CFU/mL) was administrated to mice in PC, NZX, lincomycin and ceftiofur groups, and the same volume of sterile physiological saline was administrated to mice in NC group. Glands of 3 h post-infection were injected with sterile physiological saline, NZX, lincomycin, or ceftiofur. The mice were euthanized after the treatment for 24 h, and their mammary glands were dissected, weighed, and homogenized. The animal experiments were performed according to the Animal Care and Use Committee of the Feed Research Institute, Chinese Academy of Agricultural Sciences (Permit Number: AEC-CAAS-20090609) in accordance with the Guidelines for Animal Experimentation.
After mouse sacrifice, one part of mammary tissue was taken for bacterial count, and the other part was used for the histopathological analysis. Specifically, tissues were aseptically collected immediately from the dead mice, weighted, homogenized with sterile physiological saline (1:1, W:V). Next, the homogenates were serially diluted (ten-fold dilutions) in physiological saline, plated on MHA plate, and then cultured overnight at 37 °C. The bacterial number on each plate was counted and the results were expressed as Log10 CFU per gram of mammary tissues. In addition, mammary tissues were fixed in 4% paraformaldehyde, then embedded in paraffin, cut into 5 μm sections, and later stained by hematoxylin–eosin (H&E). The stained sections were observed under a light microscope (× 200) for pathological morphology and scoring of mammary tissues (Schmidt et al. [1992]).

Row | Structure (SMILES) | MIC (S. aureus ATCC 25923 [1]) | MBC (S. aureus ATCC 25923 [1]) | MIC (S. aureus ATCC 43300 [2]) | MBC (S. aureus ATCC 43300 [2]) | MIC (S. aureus E48 [3]) | MBC (S. aureus E48 [3]) | MPC (S. aureus ATCC 43300 [4]) | EC50 (S. aureus ATCC 25923 [5]) | Cs (S. aureus ATCC 25923 [5]) | EC50 (S. aureus ATCC 43300 [6]; Staphylococcus aureus, ATCC43300, 50% reduction in Log10 CFU at 24 h between minimum and maximum) | Cs (S. aureus ATCC 43300 [6]; concentration causing no apparent growth in Log10 CFU at 24 h vs initial inoculum) | EC50 (S. aureus E48 [7]) | Cs (S. aureus E48 [7]) | bacteria reduction in mammary tissues (S. aureus ATCC 43300 [8]; 100 μg/gland intramammary) | bacteria reduction in mammary tissues (S. aureus ATCC 43300 [8]; 400 μg/gland intramammary) | bacteria reduction in mammary tissues (S. aureus ATCC 43300 [8]; range over 25 ~ 400 μg/gland intramammary)
1 | CO/N=C(\C(=O)N[C@@H]1C(=O)N2C(C(=O)O)=C(CSC(=O)c3ccco3)CS[C@H]12)c1csc(N)n1 [Ceftiofur] | 1.83 µM (≈ 0.958 µg/mL) | 3.67 µM (≈ 1.92 µg/mL) | 1.83 µM (≈ 0.958 µg/mL) | 1.83 µM (≈ 0.958 µg/mL) | 1.83 µM (≈ 0.958 µg/mL) | 3.67 µM (≈ 1.92 µg/mL) | 7.32 µM | 710 nM | 0.77 µM | 910 nM | 0.91 µM | 1180 nM | 1.11 µM | 4.82 Log10 CFU/g |  | 
2 | CCC[C@@H]1C[C@@H](C(=O)N[C@@H]([C@H]2O[C@H](SC)[C@H](O)[C@@H](O)[C@H]2O)[C@@H](C)O)N(C)C1 [Lincomycin] | 2.17 µM (≈ 0.882 µg/mL) | 4.34 µM (≈ 1.76 µg/mL) | > 139 µM | > 139 µM | 2.17 µM (≈ 0.882 µg/mL) | 4.34 µM (≈ 1.76 µg/mL) |  | 2310 nM | 2.57 µM |  |  | 1470 nM | 1.38 µM |  |  | 
3 | CC[C@H](C)[C@@H]1NC(=O)[C@H](CO)NC(=O)[C@H](CCCCN)NC(=O)[C@@H]2CSSC[C@@H](C(=O)N[C@@H](Cc3ccc(O)cc3)C(=O)O)NC(=O)[C@H](CCCCN)NC(=O)[C@@H]3CSSC[C@H](NC(=O)[C@H](CCC(N)=O)NC(=O)[C@H]([C@@H](C)CC)NC(=O)[C@H](CC(=O)O)NC(=O)[C@H](CC(=O)O)NC(=O)[C@H](CCC(=O)O)NC(=O)[C@H](CO)NC(=O)[C@H](Cc4c[nH]c5ccccc45)NC(=O)[C@@H]4CCCN4C(=O)CNC(=O)[C@H](CC(N)=O)NC(=O)[C@@H](NC(=O)CNC(=O)[C@H](Cc4ccccc4)NC(=O)CN)CSSC[C@H](NC(=O)[C@H](Cc4ccc(O)cc4)NC(=O)CNC(=O)CNC(=O)[C@H](CCCCN)NC(=O)[C@H](Cc4ccc(O)cc4)NC(=O)CNC(=O)[C@H](CCCCN)NC1=O)C(=O)N[C@@H](C)C(=O)N[C@@H](CCCNC(=N)N)C(=O)NCC(=O)NCC(=O)N[C@@H](Cc1ccccc1)C(=O)N[C@@H](C(C)C)C(=O)N3)C(=O)N[C@@H](Cc1c[nH]cn1)C(=O)N[C@@H](CC(N)=O)C(=O)N[C@@H](Cc1c[nH]cn1)C(=O)N2 [NZX] (H-GFGCNGPWSEDDIQCHNHCKSIKGYKGGYCARGGFVCKCY-OH; disulfide 4-30, 15-37, 19-39; N-terminus and C-terminus assumed) |  |  |  |  |  |  | 1.18 µM |  |  |  |  |  |  | 3.47 Log10 CFU/g | 8.81 Log10 CFU/g | 0.66 ~ 8.81 Log10 CFU/g
